# Target: T1, human RORγ-LBD (Homo sapiens, UniProt P51449)
# T1 construct: made in house; host or cells: E. coli (BL-21)
# T1 sequence (P51449 262-518): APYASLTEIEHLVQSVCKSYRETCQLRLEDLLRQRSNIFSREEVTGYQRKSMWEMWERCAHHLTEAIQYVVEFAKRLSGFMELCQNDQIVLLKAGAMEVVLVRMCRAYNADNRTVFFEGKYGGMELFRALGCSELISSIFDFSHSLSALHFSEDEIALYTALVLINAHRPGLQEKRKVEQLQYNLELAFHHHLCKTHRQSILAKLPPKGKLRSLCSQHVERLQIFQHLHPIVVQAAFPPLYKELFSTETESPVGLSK
# Assay: ROR gamma coactivator peptide recruitment Alphascreen assay (RORγ-LBD binding to GRIP1 coactivator peptide)
# Type: biochemical
# Settings: 5 nM human RORγ-LBD, 30 nM 7-β-hydroxycholesterol, 50 nM biotinylated GRIP1 coactivator peptide, overnight incubation at room temperature; read-out: result (pIC50, RORγ coactivator peptide recruitment Alphascreen assay) (converted)
# Summary of the method: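 His/Flag-tagged human RORγ-LBD (aa 262-518, E. coli-expressed, 5 nM) with agonist 7-β-hydroxycholesterol (30 nM) and biotinylated GRIP1 LXXLL peptide (50 nM) in HEPES pH 7.4 buffer, 2.5% DMSO. Compound 1-in-2 dilutions; Alphascreen bead signal read after overnight incubation at room temperature; pIC50 calculated.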
row,SMILES,IC50
1,"CC1(C)CC[C@@H]1N(CC(=O)c1c(Cl)cccc1Cl)C(=O)c1cnn([C@H]2CC[C@@H](C(=O)O)CC2)c1C(F)(F)F [Example 637, cis-4-(4-((2-(2,6-dichlorophenyl)-2-oxoethyl)((1S)-2,2-dimethylcyclobutyl)carbamoyl)-5-(trifluoromethyl)-1H-pyrazol-1-yl)cyclohexanecarboxylic acid]",724 nM
2,"C[C@@H]1C[C@@H](n2ncc(C(=O)N(CC(=O)c3c(Cl)cccc3Cl)CC(C)(C)F)c2C(F)(F)F)CC[C@@H]1C(=O)O [Example 831, (1S,2R,4S)-4-(4-((2-(2,6-dichlorophenyl)-2-oxoethyl)(2-fluoro-2-methylpropyl)carbamoyl)-5-(trifluoromethyl)-1H-pyrazol-1-yl)-2-methylcyclohexanecarboxylic acid]",2.63 nM
3,"CC1(C)CC(CN(CC(=O)c2c(Cl)cccc2Cl)C(=O)c2cnn([C@H]3CC[C@H](C(=O)O)CC3)c2C(F)(F)F)C1 [Example 521, trans-4-(4-((2-(2,6-dichlorophenyl)-2-oxoethyl)((3,3-dimethylcyclobutyl)methyl)carbamoyl) 5-(trifluoromethyl)-1H-pyrazol-1-yl)cyclohexanecarboxylic acid]",1.86 nM
4,"CC1(CN(CCc2c(Cl)cncc2Cl)C(=O)c2cnn([C@H]3CC[C@](C)(C(=O)O)CC3)c2C(F)(F)F)CCC1 [Example 562, trans-4-(4-((2-(3,5-dichloro-4-pyridinyl)ethyl)((1-methylcyclobutyl)methyl)carbamoyl)-5-(trifluoromethyl)-1H-pyrazol-1-yl)-1-methylcyclohexanecarboxylic acid]",3.72 nM
5,"CC(C)(C#N)CCN(CC(=O)c1c(Cl)cccc1Cl)C(=O)c1cnn([C@H]2CC[C@](C)(C(=O)O)CC2)c1C(F)(F)F [Example 622, trans-4-(4-((3-cyano-3-methylbutyl)(2-(2,6-dichlorophenyl)-2-oxoethyl)carbamoyl)-5-(trifluoromethyl)-1H-pyrazol-1-yl)-1-methylcyclohexanecarboxylic acid]",229 nM
6,"C[C@]1(C(=O)O)CC[C@H](n2ncc(C(=O)N(CC(=O)c3c(Cl)cncc3Cl)CC3(C(F)(F)F)CCC3)c2C(F)(F)F)CC1 [Example 799, trans-4-(4-((2-(3,5-dichloro-4-pyridinyl)-2-oxoethyl)((1-(trifluoromethyl)cyclobutyl)methyl)carbamoyl)-5-(trifluoromethyl)-1H-pyrazol-1-yl)-1-methylcyclohexanecarboxylic acid]",3.89 nM
7,"C[C@H]1C[C@@H](n2ncc(C(=O)N(CC(=O)c3c(Cl)cncc3Cl)CC(C)(C)C)c2C(F)(F)F)CC[C@]1(C)C(=O)O [Example 873, (1S,2S,4S)-4-(4-((2-(3,5-dichloro-4-pyridinyl)-2-oxoethyl)(2,2-dimethylpropyl)carbamoyl)-5-(trifluoromethyl)-1H-pyrazol-1-yl)-1,2-dimethylcyclohexanecarboxylic acid]",5.25 nM
8,"Cc1ncc(Cl)c(C(=O)CN(C(=O)c2cnn([C@H]3CC[C@](C)(C(=O)O)CC3)c2C(F)(F)F)[C@H]2C[C@@H]3[C@H](C2)C3(C)C)c1Cl [Example 758, trans-4-(4-((2-(3,5-dichloro-2-methyl-3-pyridinyl)-2-oxoethyl)((1R,3r,5S)-6,6-dimethylbicyclo[3.1.0]hex-3-yl)carbamoyl)-5-(trifluoromethyl)-1H-pyrazol-1-yl)-1-methylcyclohexanecarboxylic acid]",3.55 nM
9,"C[C@H](C(=O)O)[C@H]1C[C@H](n2ncc(C(=O)N(CC(=O)c3c(Cl)cccc3Cl)[C@H]3C[C@@H]4[C@H](C3)C4(C)C)c2C(F)(F)F)C1 [Example 772, (S)-2-((1R,3S)-3-(4-((2-(2,6-dichlorophenyl)-2-oxoethyl)((1R,3r,5S)-6,6-dimethylbicyclo[3.1.0]hexan-3-yl)carbamoyl)-5-(trifluoromethyl)-1H-pyrazol-1-yl)cyclobutyl)propanoic acid]",3.72 nM
10,"CC1(C)CCC(N(CCc2c(Cl)cncc2Cl)C(=O)c2cnn([C@H]3CC[C@H](C(=O)O)CC3)c2C(F)(F)F)CC1 [Example 550, trans-4-(4-((2-(3,5-dichloro-4-pyridinyl)ethyl)(4,4-dimethylcyclohexyl)carbamoyl)-5-(trifluoromethyl)-1H-pyrazol-1-yl)cyclohexanecarboxylic acid]",21.4 nM
11,"C[C@]1(C(=O)O)CC[C@H](n2ncc(C(=O)N(CC(=O)c3c(Cl)cncc3Cl)[C@@H]3CCC34CCC4)c2C(F)(F)F)CC1 [Example 749, trans-4-(4-((2-(3,5-dichloro-4-pyridinyl)-2-oxoethyl)((1R)-spiro[3.3]hept-1-yl)carbamoyl)-5-(trifluoromethyl)-1H-pyrazol-1-yl)-1-methylcyclohexanecarboxylic acid]",60.3 nM

# Second part, the compound after the results:
row,IC50,SMILES
1,15.5 nM,"COc1cc(Cl)c(C(=O)CN(CC2CCC3(CCC3)CC2)C(=O)c2cnn([C@H]3CC[C@@](C)(C(=O)O)CC3)c2C(F)(F)F)c(Cl)c1 [Example 891, trans-4-(4-((2-(2,6-dichloro-4-methoxyphenyl)-2-oxoethyl)(spiro[3.5]non-7-ylmethyl)carbamoyl)-5-(trifluoromethyl)-1 H-pyrazol-1-yl)-1 - methylcyclohexanecarboxylic acid]"
2,17.8 nM,"CC1(C)CC[C@H](CN(CC(=O)c2c(Cl)cncc2Cl)C(=O)c2cnn([C@H]3CC[C@](C)(C(=O)O)CC3)c2C(F)(F)F)O1 [Example 674, trans-4-(4-((2-(3,5-dichloro-4-pyridinyl)-2-oxoethyl)(((2S)-5,5-dimethyltetrahydro-2-furanyl)methyl)carbamoyl)-5-(trifluoromethyl)-1H-pyrazol-1-yl)-1-methylcyclohexanecarboxylic acid]"
3,4.68 nM,"Cc1cc(Cl)c(CCN(CC(C)(C)C)C(=O)c2cnn([C@H]3CC[C@](C)(C(=O)O)CC3)c2C(F)(F)F)c(Cl)c1 [Example 515, trans-4-(4-((2-(2,6-dichloro-4-methylphenyl)ethyl)(2,2-dimethylpropyl)carbamoyl)-5-(trifluoromethyl)-1H-pyrazol-1-yl)-1-methylcyclohexanecarboxylic acid]"
4,43.7 nM,"Cc1cc(C)c(C(=O)CN(CC(C)(C)C)C(=O)c2cnn([C@H]3CC[C@](C)(C(=O)O)CC3)c2C(F)(F)F)c(Cl)n1 [Example 693, trans-4-(4-((2-(2-chloro-4,6-dimethyl-3-pyridinyl)-2-oxoethyl)(2,2-dimethylpropyl)carbamoyl)-5-(trifluoromethyl)-1H-pyrazol-1-yl)-1-methylcyclohexanecarboxylic acid]"
5,2.63 nM,"CCC1(CN(CC(=O)c2c(Cl)cncc2Cl)C(=O)c2cnn([C@H]3CC[C@](C)(C(=O)O)CC3)c2C(F)(F)F)CCC1 [Example 742, trans-4-(4-((2-(3,5-dichloro-4-pyridinyl)-2-oxoethyl)((1-ethylcyclobutyl)methyl)carbamoyl)-5-(trifluoromethyl)-1H-pyrazol-1-yl)-1-methylcyclohexanecarboxylic acid]"
6,4.68 nM,"C[C@]1(C(=O)O)CC[C@H](n2ncc(C(=O)N(CC(=O)c3c(Cl)cncc3Cl)CC34CC(C3)C4)c2C(F)(F)F)CC1 [Example 854, trans-4-(4-((bicyclo[1.1.1]pent-1-ylmethyl)(2-(3,5-dichloro-4-pyridinyl)-2-oxoethyl)carbamoyl)-5-(trifluoromethyl)-1H-pyrazol-1-yl)-1-methylcyclohexanecarboxylic acid]"
7,1.32 nM,"Cc1cc(Cl)c(C(=O)CN(CC2CCC(C)(C)CC2)C(=O)c2cnn([C@H]3CC[C@H](C(=O)O)CC3)c2C(F)(F)F)c(Cl)c1 [Example 535, trans-4-(4-((2-(2,6-dichloro-4-methylphenyl)-2-oxoethyl)((4,4-dimethylcyclohexyl)methyl)carbamoyl)-5-(trifluoromethyl)-1H-pyrazol-1-yl)cyclohexanecarboxylic acid]"
8,18.2 nM,"Cc1cc(Cl)c(C(=O)CN(CC2CC3(CC3)C2)C(=O)c2cnn([C@H]3CC[C@@H](C(=O)O)CC3)c2C(F)(F)F)c(Cl)c1 [Example 565, cis-4-(4-((2-(2,6-dichloro-4-methylphenyl)-2-oxoethyl)(spiro[2.3]hex-5-ylmethyl)carbamoyl)-5-(trifluoromethyl)-1H-pyrazol-1-yl)cyclohexanecarboxylic acid]"
9,6.03 nM,"Cc1cc(Cl)c(C(=O)CN(C[C@H]2CC(C)(C)O2)C(=O)c2cnn([C@H]3CC[C@](C)(C(=O)O)CC3)c2C(F)(F)F)c(Cl)c1 [Example 724, trans-4-(4-((2-(2,6-dichloro-4-methylphenyl)-2-oxoethyl)(((2R)-4,4-dimethyl-2-oxetanyl)methyl)carbamoyl)-5-(trifluoromethyl)-1H-pyrazol-1-yl)-1-methylcyclohexanecarboxylic acid]"
10,11.2 nM,"Cc1cc(F)c(C(=O)CN(C[C@]2(C)CCCO2)C(=O)c2cnn([C@H]3CC[C@](C)(C(=O)O)CC3)c2C(F)(F)F)c(Cl)c1 [Example 805, trans-4-(4-((2-(2-chloro-6-fluoro-4-methylphenyl)-2-oxoethyl)(((2S)-2-methyltetrahydro-2-furanyl)methyl)carbamoyl)-5-(trifluoromethyl)-1H-pyrazol-1-yl)-1-methylcyclohexanecarboxylic acid]"
11,14.8 nM,"Cc1cc(Cl)c(C(=O)CN(CC(C)(C)C)C(=O)c2cnn([C@H]3CC[C@](C)(C(=O)O)CC3)c2C(F)(F)F)c(Cl)n1 [Example 687, trans-4-(4-((2-(2,4-dichloro-6-methyl-3-pyridinyl)-2-oxoethyl)(2,2-dimethylpropyl)carbamoyl)-5-(trifluoromethyl)-1H-pyrazol-1-yl)-1-methylcyclohexanecarboxylic acid]"
